Patent US11253519B2, “Composition used to improve symptoms of autism spectrum disorder, and method using same for improving symptoms of autism spectrum disorder” (RENASCIENCE CO., LTD., priority 2016, dated 2022)

Columns and labels:
Format in all cases: in vivo, human
[1] = Vitamin B1 level in whole blood, serum pyridoxamine and pyridoxal levels and Wernicke's encephalopathy in two test subjects on pyridoxamine medication
[2] = Plasma kinetics of pyridoxamine and metabolites in healthy male adults (LC-MS-MS)
Excerpt: Rather, in blood, the pyridoxal level was higher than the pyridoxamine level. […] The observation results were obtained in a clinical trial performed by collaborators of the applicant of this application, and are shown here simply for reference.

ASD patient [3] = assay: PARS-TR rating (items 25 to 57, each 0 none, 1 somewhat noticeable, 2 noticeable) in ASD patients before and after intake
Excerpt: PARS (Pervasive Developmental Disorder Autism Society Japan Rating Scale) is a scale composed of 57 items to determine the characteristics in pervasive developmental disorder (PDD) (which may hereinafter also simply be referred to as “PDD”), and to evaluate the support difficulty by interviewing the mothers of the subjects (or other rearer, if it is difficult to obtain information from the mother of a subject); PARS-TR is its revised version. The revised version contains revised wording of the commentary of question items, while maintaining the reliability and validity of the rating scale of the former PARS. On a side note, question items and rating in PARS-TR, PARS-TR items rated for each age group, a score calculation method, and an ASD characteristics test method are detailed in PARS-TR PARS Text Revision (written and edited by Hattatsu Shogai Shien no tameno Hyoka Kenkyu Kai [Study of the Assessment for Supporting Developmental Disorder], a general incorporated association, Spectrum Publishing Company), the disclosure of which is incorporated herein by reference.
FIG. 3 illustrates 57 rating items prescribed in PARS-TR. The rating items vary depending on the age group of targets for diagnosis (children before school age (early childhood), elementary school students (childhood), and junior high-school students or older subjects (early adolescence or adulthood)). Items 1 to 34 are directed to those in early childhood. Items 1 to 34 are intended to assess the peak in early childhood (assessment for most noticeable symptoms in early childhood) of all subjects (children before school age, elementary school students, and junior high-school students or older subjects), and also to assess the current condition of subjects in early childhood. Peak assessment and current condition assessment are performed for young children because, for example, clear autistic symptoms before the age of 4 years may be alleviated after age 5. Young children are not assessed by items 35 to 57. Elementary school students are assessed by items 1 to 34 for early childhood to determine the peak in early childhood, and items 21 to 53 for childhood to determine the current condition. Junior high-school students or older subjects are assessed by the 34 items for early childhood to determine the peak in early childhood, and items 25 to 57 for early adolescence or adulthood to determine the current condition. The specific evaluation method is described in detail in Example 2.
Assessment by PARS-TR is performed by questioning the mother or someone else regarding the severity of symptoms concerning development and behaviors described in rating items in terms of “assessment of the peak in early childhood” and “assessment of the current condition,” and the answer was classified into the following 3 levels and assessed: “0=none (no symptoms asked were observed/no),” “1=somewhat noticeable (symptoms asked were sometimes (somewhat) observed/yes),” and “2=noticeable (symptoms asked were often (quite) observed/yes).” The PARS-TR score is a value determined by simply summing up the assessment score of each item, excluding items that cannot be assessed. Specifically, the cutoff value at which the subject is diagnosed with PDD is score 9 in early childhood, score 13 in childhood, and score 20 in early adolescence or adulthood.
[…] The total scores were compared.
(§1) The symptoms of ASD of the ASD patient were assessed based on the scores of ABC-J, PARS-TR, and RSB-R (Japanese version) by a medical doctor who is a researcher of ASD.

ASD patient [4] = assay: RSB-R (Repetitive Behavior Scale-Revised, Japanese version, 43 items, 6 subscales) in ASD patients before and after intake; settings: 800 mg/day oral + fursultiamine 25 mg/day, 8 weeks after the intake
Excerpt: RSB-R is composed of 6 subscales (I. Stereotypical Behavior, II. Self-Harming Behavior, III. Obsessive-Compulsive Behavior, IV. Ritualized Behavior, V. Insistence on Sameness, and VI. Circumscribed Interests) and 43 items. RSB-R (Japanese version) is a Japanese version of RBS-R, which is a rating scale used worldwide, and whose validity has already been verified (Inada et al., Research in Autism Spectrum Disorders, Vol. 15-16, July 2015, pp. 60-68; Inada et al., Study on reliability and validity of the Japanese version of Repetitive Behaviors Scale—Revised (RBS-R), The Japanese Journal of Developmental Psychology, 2012, Vol. 23, No. 2, pp. 123-133). FIG. 4 illustrates 43 items of RSB-R (including 6 subscales), and the relation between the 43 items of RSB-R and diagnostic criteria A and B of DSM-5.
as §1
The ASD symptoms of the ASD patient were assessed based on the scores in ABC-J and RSB-R (Japanese version) by a medical doctor who is a researcher of ASD.

[5] = case 2, 600 mg/day oral + fursultiamine 25 mg/day, 17 Days After Administration, Before Administration: 0
[6] = case 2, 600 mg/day oral + fursultiamine 25 mg/day, 17 Days After Administration, Before Administration: 1
[7] = case 2, 600 mg/day oral + fursultiamine 25 mg/day, 17 Days After Administration, Before Administration: 2
[8] = case 3, 800 mg/day oral + fursultiamine 25 mg/day, 8 weeks after the intake, before intake: rating 1

Cc1ncc(CO)c(CN)c1O.Cl.Cl [pyridoxamine dihydrochloride]
concentration at 4 weeks ([1]; human, serum, oral, subject ID No. 3, 4 weeks after start of administration): 1540 ng/mL | concentration at 12 weeks ([1]; human, serum, oral, subject ID No. 3, 12 weeks after start, with fursultiamine 75 mg/day): 23.2 ng/mL | concentration at 8 weeks ([1]; human, serum, oral, subject ID No. 6, 8 weeks after start of administration): 421 ng/mL | concentration at 11 weeks ([1]; human, serum, oral, subject ID No. 6, 11 weeks after start, with fursultiamine): 140 ng/mL | brain MRI finding during medication ([1]; subject ID No. 3, 6 weeks after start of administration, epilepsy-like symptom): sign suggestive of Wernicke's encephalopathy | brain MRI finding during medication ([1]; subject ID No. 6, 9 weeks after start of administration): signs suggestive of Wernicke's encephalopathy | plasma levels of pyridoxamine, pyridoxal, and 4-pyridoxic acid versus dose ([2]; 300, 600, 900 mg/dose oral): increased along with the increase in dose | time to peak plasma level of pyridoxamine (unchanged substance) ([2]; 300, 600 or 900 mg/dose oral at 0, 6 and 12 hours, trial by collaborators of the applicant): 3 h | plasma pyridoxine (PN) level ([2]; 300, 600 or 900 mg/dose oral, FIG. 14B): did not show any substantial change | PARS-TR item 27: Having negative lifestyle habits, and being incapable of living independently (ASD patient [3]; [5]): 0 | PARS-TR item 29: Showing extreme pickiness in food, with no extremely narrow range of food choice (ASD patient [3]; [5]): 0 | PARS-TR item 31: Being insensitive or sensitive to pain or heat (ASD patient [3]; [5]): 0 | PARS-TR item 32: Being terrified of nothing (ASD patient [3]; [5]): 0 | PARS-TR item 34: Showing self-harming behaviors, such as hitting the head on the wall or biting the hand (ASD patient [3]; [5]): 0 | PARS-TR item 39: Having difficulty understanding what is said from one situation to another (ASD patient [3]; [5]): 0 | PARS-TR item 40: Using big words, but not fully understanding the meaning thereof (ASD patient [3]; [5]): 0 | PARS-TR item 41: Difficulty understanding who is talking to who in a large group conversation (ASD patient [3]; [5]): 0 | PARS-TR item 42: Being incapable of explaining how and why (ASD patient [3]; [5]): 0 | PARS-TR item 47: Enacting a familiar scene from a TV show alone (ASD patient [3]; [5]): 0 | PARS-TR item 48: Persistently and repeatedly harassing someone on purpose (ASD patient [3]; [5]): 0 | PARS-TR item 49: Always wanting to be the best (ASD patient [3]; [5]): 0 | PARS-TR item 50: Showing tic symptoms (e.g., blinking, head movements, abuseful language) (ASD patient [3]; [5]): 0 | PARS-TR item 51: Being restless in a manner inappropriate for the context (ASD patient [3]; [5]): 0 | PARS-TR item 53: Showing behavioral arrest, and becoming incapable of moving to the next act fo frozen (ASD patient [3]; [5]): 0 | PARS-TR item 25: Persistently asking the same question (ASD patient [3]; [6]): 0 | PARS-TR item 26: Showing confusion when regular daily routine of procedures suddnly change (ASD patient [3]; [6]): 1 | PARS-TR item 33: Suddenly crying or becoming upset (ASD patient [3]; [6]): 0 | PARS-TR item 36: Showing self-centered behaviors without regard for surrounding people (ASD patient [3]; [6]): 0 | PARS-TR item 37: Showing interactive behaviors inappropriate for the context when approached by someone (ASD patient [3]; [6]): 1 | PARS-TR item 38: Interacting with others only when having a request (ASD patient [3]; [6]): 0 | PARS-TR item 43: Speaking in a unnatural and monotonous tone (ASD patient [3]; [6]): 1 | PARS-TR item 44: Having difficulty understanding another person's feeling or point of view (ASD patient [3]; [6]): 0 | PARS-TR item 45: Having difficulty understanding jokes and irony, and interpreting them literally (ASD patient [3]; [6]): 1 | PARS-TR item 52: Being very careless, unable to behave appropriately for the context (ASD patient [3]; [6]): 0 | PARS-TR item 54: Appearing unashamed (ASD patient [3]; [6]): 1 | PARS-TR item 55: Being easily deceived (ASD patient [3]; [6]): 1 | PARS-TR item 56: Being likely to feel victimized, suspicious, or aggressive (ASD patient [3]; [6]): 0 | PARS-TR item 57: Being emotionally unstable, and showing frequent emotional ups and downs (ASD patient [3]; [6]): 0 | PARS-TR item 28: Becoming mentally unstable when recalling bad events in the past (ASD patient [3]; [7]): 1 | PARS-TR item 30: Being disgusted with a particular sound (ASD patient [3]; [7]): 1 | PARS-TR item 46: Being keen on acquiring knowledge in a particular field, such as the names of places or train stations (ASD patient [3]; [7]): 1 | PARS-TR Total Score of Items 25 to 57 (ASD patient [3]; case 2, 600 mg/day oral + fursultiamine 25 mg/day, 17 Days After Administration, Before Administration: 22, cutoff 20 or more): 11 | severity of hypersensibility (ASD patient [3]; case 3, 800 mg/day oral + fursultiamine 25 mg/day, 8 weeks): lowered the severity of hypersensibility | PARS-TR item 31 rating (insensitive to pain) (ASD patient [3]; [8]): 1 | PARS-TR item 32 rating (frightened by wipers, ceiling fan) (ASD patient [3]; [8]): 0 | PARS-TR item 30 rating (hyperacusis) (ASD patient [3]; case 3, 800 mg/day oral + fursultiamine 25 mg/day, 8 weeks after the intake, before intake: rating 2): 1 | PARS-TR current score in early adolescence or adulthood (ASD patient [3]; case 3, 800 mg/day oral + fursultiamine 25 mg/day, 18 weeks after the intake, before intake: 21, cutoff score 20): 14 | RBS-R total score for each subscale compared with before the intake (ASD patient [4]; case 3, 6 subscales, FIG. 8B): significant decrease | RBS-R total score compared with before the intake (ASD patient [4]; case 3, FIG. 8A): significant decrease | total score of all items in RBS-R compared with before the intake (ASD patient [4]; case 4, FIG. 10A): significantly decreased | RBS-R total score of subscale items (Stereotypical Behavior, Self-Harming Behavior, Obsessive-Compulsive Behavior, Insistence on Sameness) (ASD patient [4]; case 4, FIG. 10B): significantly decreased
